What all share (format): in vivo
Data set [1] in a line: Study 1: rainbow trout 91-day feeding trial, growth performance (SGR) and feed conversion (FCR). As to conditions: rainbow trout, 80, 800 or 8000 μg/kg 25-OH-D3 in feed, 91 days. Here is the method: (§1) The first study evaluated dietary 25-hydroxyvitamin D3 (25-OH D3) compared to control basal diet fed fish. Fish with a mean starting weight of 58 g were fed diets based on the same standard composition representative of typical commercial salmonid feeds.
(§2) Test diets contained no supplemented 25-OH-D3 or either 80, 800 or 8000 μg/kg supplemented 25-OH-D3 (as fed basis). Hy·D (25-OH-D3) was supplemented on top of diets already containing cholecalciferol (D3) from both endogenous and supplemented sources. The measured levels of D3 in all experimental diets were in excess of established minimum dietary requirements for D3, (National Research Council (NRC), Nutrient Requirements of Fish and Shrimp. 2011, Washington, DC: The National Academies Press. 392.). In addition, the dietary level of D3 in all experimental diets met recommendations for optimal vitamin D3 in salmonid diets (Fish Nutrition. Fourth Edition 2021. Edited by Ronald W. Hardy and Sadasivam J. Kaushik. Academic Press, UK. 905 pp.), which stipulates a vitamin D3 supplementation of 2500-3500 international units (IU)/62.5-87.5 μg/kg). Diets were fed for 91 days following which, test fish reached a mean final weight of 332 g. Forty fish were housed in each tank and each treatment consisted of four replicate tanks.

Data set [2] in a line: Study 2: Atlantic salmon 90-day feeding trial, final body weight, FCR and PER. As to conditions: Atlantic salmon, 100, 200 or 400 μg/kg 25-OH-D3 in feed, 90 days, relative to control. Here is the method:
(§3) The second study evaluated dietary 25-hydroxyvitamin D3 (25-OH D3) compared to control basal diet fed fish.
(§4) Fish with a mean starting weight of 23.4 g were fed diets based on the same standard composition representative of typical commercial salmonid feeds. Test diets contained no supplemented 25-OH-D3 or either 100, 200 or 400 μg/kg supplemented 25-OH-D3 (as fed basis). Hy·D (25-OH-D3) was supplemented on top of diets already containing cholecalciferol (D3) from both endogenous and supplemented sources. The measured levels of D3 in all experimental diets were in excess of established minimum dietary requirements for D3, (National Research Council (NRC), Nutrient Requirements of Fish and Shrimp. 2011, Washington, DC: The National Academies Press. 392.). In addition, the dietary level of D3 in all experimental diets met recommendations for optimal vitamin D3 in salmonid diets (Fish Nutrition. Fourth Edition 2021. Edited by Ronald W. Hardy and Sadasivam J. Kaushik. Academic Press, UK. 905 pp.), which stipulates a vitamin D3 supplementation of 2500-3500 international units (IU)/62.5-87.5 μg/kg). Diets were fed for 90 days with test fish reaching a mean final weight of 73.0 g. Twenty fish were housed in each tank and each treatment consisted of five replicate tanks.

The nature of data set [3]: Rainbow trout 20-week feeding from first-feeding, feed efficiency and whole body composition. As to conditions: 80 μg/Kg 25-OH-D3 plus D3, 20 weeks. Here is the method: The first study evaluated standard dietary levels of supplemented vitamin D3 alone or in combination with 80 μg/Kg 25-hydroxy vitamin D3dietary 25-hydroxyvitamin D3 (25-OH D3) in rainbow trout fed for 20 weeks from first-feeding.
Two commercial-like experimental diets were formulated by DSM Nutritional Products France and produced by SPAROS (Portugal). The basal diet was supplemented with either vitamin D3 only (VitD3 diet) or D3 in combination with 80 μg/Kg 25-hydroxy vitamin D3 (25-OH-D3 diet) (Table 1).
The parameters for growth performance, including feed efficiency (FE), were measured every 3 weeks and calculated as follow: Feed efficiency (FE)=(the mass for dead fish+final wet body mass-initial wet body mass)/dry feed intake. […].
Data are presented as means±standard deviation (SD). For growth parameters, the plasma and the qPCR results, data were analyzed by t-Student comparison of two means. Normality was assessed using the Shaprio-Wilk test, while homoscedasticity was determined using Levene's test. Data was analysed using the statistical R software/R Commander package. For all statistical analyses, the level of significance was set at P<0.05. […] Differentially expressed genes (DEG) are determined and hierarchical clustering is illustrated by a heatmap. […]

Data set [4] can be described thus: Study 1: rainbow trout 91-day feeding trial, vitamin D3 metabolites in plasma and muscle. Here is the method:
as §1, §2

Data set [5] in a line: Study 2: Atlantic salmon 90-day feeding trial, viscerosomatic index, carcass yield and visceral fat. As to conditions: Atlantic salmon, 100, 200 or 400 μg/kg 25-OH-D3 in feed, 90 days, relative to control. Here is the method:
as §3, §4

The mark [6] stands for this setting: rainbow trout, 80, 800 or 8000 μg/kg in standard trout feed.

“Also recorded” adds a separate entry of the source.

As to `C=C1CC[C@H](O)C/C1=C/C=C1\CCC[C@]2(C)[C@@H]([C@H](C)CCCC(C)(C)O)CC[C@@H]12` [25-OH-D3, 25-hydroxyvitamin D3], the “specific growth rate (SGR) relative to the control” value in data set [1] (apparent from 31 days onwards) is “rapidly improved; also recorded: increased growth rate relative to the control”. Also, the “feed conversion ratio (FCR) relative to the control” value in data set [1] (from 15 days onwards) was “rapidly improved”. In data set [2], the “feed conversion (FCR)” value is listed as “improved”, the final body weight entry was “improved; also recorded: increased growth” and the “protein efficiency ratio (PER)” value is “improved”. Also, in data set [3] (rainbow trout fry, vs 1.19 for comparison diet, p=0.0002), the “feed efficiency (FE)” value was determined as 1.29. The whole body protein in data set [3] (rainbow trout, 47.38 vs. 51.15, p=0.006) is recorded as 51.15. Also, the “plasma levels of 1,25-OH-D3 (active D3 metabolite)” value in data set [4] (rainbow trout, 80, 800 or 8000 μg/kg dietary 25-OH-D3 from Hy·D, D3-replete diets) was “increased plasma levels”. Besides, in data set [4] (setting [6]), the “blood plasma 25-OH-D3 in response to increasing dietary 25-OH-D3” value is “increase in a linear relationship” and the “muscle 25-OH-D3 in response to increasing dietary 25-OH-D3” value is given as “increase in a linear relationship”. In addition, the bioavailability to fish result in data set [4] (rainbow trout, from changes in plasma and muscle vitamin D3 metabolites) is “highly bioavailable”. In data set [5], the “carcass yield (percentage carcass)” value was “improved carcass yields; also recorded: increased”, the “percentage fat in the viscera” value was “reduced percentage fat being deposited in the viscera” and the “viscerosomatic index (VSI)” value is reported as “reduced VSI; also recorded: decreased VSI”.
